Measurements: patent EP4800015A1, “AZABICYCLO DERIVATIVE AND PREPARATION METHOD THEREFOR, AND USE” (Zhejiang Hisun Pharmaceutical Co., Ltd., priority 2023, dated 2025)

Key:
recombinant human WRN = molecular target: T1, recombinant human WRN (Homo sapiens, UniProt Q14191); assay: Inhibition of WRN enzyme activity (ATPase), ADP-Glo Kinase Assay; format: biochemical; settings: WRN protein 5 nM, Flap 0.1 nM, ATP 30 µM; read-out: IC50
T1 construct: purchased BPS 101264
Procedure, shortened: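 ATPase activity was measured by ADP-Glo luminescence after a 10-min room-temperature reaction with 30 µM ATP and 0.1 nM Flap26 oligonucleotide substrate. The 5 nM WRN had first been exposed to compound (0.004–1000 nM) for 15 min in pH 7.5 Tris buffer with 2 mM MgCl2. IC50 values came from log-concentration regression against the DMSO control.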

RL95-2 cells = assay: Inhibition of RL95-2 cell proliferation (CellTiter-Glo); format: cell-based; settings: Homo sapiens; RL95-2 cells (MSI-H), 120 hours
Procedure, shortened: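 Proliferation IC50 derived by nonlinear regression of % inhibition against log concentration, with 0.1% DMSO wells as reference. CellTiter-Glo luminescence was read after 120 h of compound exposure (10000 nM down to 1.52 nM final) at 37 °C. MSI-H RL95-2 cells seeded at 500/well in DMEM/F12 with 10% FBS the day before.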

SW48 cells = assay: Inhibition of SW48 cell proliferation (CellTiter-Glo); format: cell-based; settings: Homo sapiens; SW48 cells (MSI-H), 120 hours
Procedure, shortened: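 SW48 (MSI-H) cells in L-15 with 10% FBS were seeded at 500 per well, cultured overnight at 37 °C, then exposed to compound at final concentrations of 10000 nM to 1.52 nM for 120 h. Viability was read by CellTiter-Glo luminescence, with inhibition relative to 0.1% DMSO. IC50 from nonlinear regression of log concentration versus inhibition.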

Measured: IC50

T1 sequence (Q14191 whole entry): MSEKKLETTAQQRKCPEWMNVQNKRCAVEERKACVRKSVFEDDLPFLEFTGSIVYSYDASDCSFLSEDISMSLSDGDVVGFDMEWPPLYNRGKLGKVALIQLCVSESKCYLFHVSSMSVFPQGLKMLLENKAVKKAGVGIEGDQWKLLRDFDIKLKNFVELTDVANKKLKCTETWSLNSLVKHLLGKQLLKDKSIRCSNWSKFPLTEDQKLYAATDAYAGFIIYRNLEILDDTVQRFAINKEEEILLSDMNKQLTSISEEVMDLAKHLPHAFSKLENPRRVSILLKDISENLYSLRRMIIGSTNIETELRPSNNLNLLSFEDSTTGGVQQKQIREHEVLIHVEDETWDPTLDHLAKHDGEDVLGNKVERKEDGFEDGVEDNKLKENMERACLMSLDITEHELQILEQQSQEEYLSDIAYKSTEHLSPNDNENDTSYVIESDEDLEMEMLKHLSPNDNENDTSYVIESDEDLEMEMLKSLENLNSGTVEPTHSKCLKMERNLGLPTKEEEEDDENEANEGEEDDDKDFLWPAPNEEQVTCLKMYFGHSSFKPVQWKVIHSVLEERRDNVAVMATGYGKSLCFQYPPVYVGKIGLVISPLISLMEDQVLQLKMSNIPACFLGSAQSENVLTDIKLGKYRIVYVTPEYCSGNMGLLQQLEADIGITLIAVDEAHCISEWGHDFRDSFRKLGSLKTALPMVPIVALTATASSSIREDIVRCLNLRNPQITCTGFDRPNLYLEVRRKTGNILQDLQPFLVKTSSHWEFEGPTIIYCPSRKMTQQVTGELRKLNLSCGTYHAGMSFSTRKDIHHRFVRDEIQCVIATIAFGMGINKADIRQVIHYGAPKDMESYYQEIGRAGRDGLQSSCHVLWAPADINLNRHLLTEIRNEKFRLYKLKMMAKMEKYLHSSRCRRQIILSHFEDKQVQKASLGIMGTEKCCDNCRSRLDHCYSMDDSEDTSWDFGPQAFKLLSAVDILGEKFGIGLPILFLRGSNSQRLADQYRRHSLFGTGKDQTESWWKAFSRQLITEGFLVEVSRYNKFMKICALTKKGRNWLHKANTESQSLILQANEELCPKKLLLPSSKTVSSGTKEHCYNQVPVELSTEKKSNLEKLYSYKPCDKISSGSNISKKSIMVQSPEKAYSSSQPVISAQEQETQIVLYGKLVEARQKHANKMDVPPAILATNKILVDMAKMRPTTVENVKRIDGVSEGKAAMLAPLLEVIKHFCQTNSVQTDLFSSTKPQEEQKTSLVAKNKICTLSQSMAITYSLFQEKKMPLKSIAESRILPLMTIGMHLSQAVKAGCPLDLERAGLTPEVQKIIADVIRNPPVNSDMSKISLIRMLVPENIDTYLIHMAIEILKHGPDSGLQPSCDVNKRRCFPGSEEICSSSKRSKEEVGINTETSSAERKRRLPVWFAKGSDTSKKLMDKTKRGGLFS

CCc1c(N2CCN(C(=O)c3ncnc(C)c3O)CC2)c(=O)n2nc(C3=CCC4(CC3)CC4)nc2n1CC(=O)Nc1ccc(S(F)(F)(F)(F)F)cc1 [Example 120, 2-(5-ethyl-6-(4-(5-hydroxy-6-methylpyrimidine-4-carbonyl)piperazin-1-yl)-7-oxo-2-(spiro[2.5]oct-5-en-6-yl)-[1,2,4]triazolo[1,5-a]pyrimidin-4(7H)-yl)-N-(4-(pentafluoro-λ6-sulfaneyl)phenyl)ace tamide]
1 to 100 nM: all assays above

CCc1c(N2CCN(C(=O)c3ncccc3O)CC2)c(=O)n2nc(C3=CC4CC(O)CC4C3)nc2n1CC(=O)Nc1ccc(C(F)(F)F)cc1Cl (stereo not drawn) [Example 121, N-(2-chloro-4-(trifluoromethyl)phenyl)-2-(5-ethyl-2-(5-hydroxy-1,3a,4,5,6,6a-hexahydropentalen-2-yl)-6-(4-(3-hydroxypicolinoyl)piperazin-1-yl)-7-oxo-[1,2,4]triazolo[1,5-a]pyrimidin-4(7H)-yl) acetamide]
1 to 100 nM: all assays above

CCc1c(N2CCN(C(=O)c3ncnc(C)c3O)CC2)c(=O)n2nc(-c3ccc4cc[nH]c4c3)nc2n1CC(=O)Nc1ccc(C(F)(F)F)cc1Cl [Example 123, N-(2-chloro-4-(trifluoromethyl)phenyl)-2-(5-ethyl-6-(4-(5-hydroxy-6-methylpyrimidine-4-carbonyl)piperazin-1-yl)-2-(1H-indo1-6-yl)-7-oxo-[1,2,4]triazolo[1,5-a]pyrimidin-4(7H)-yl)acetamide]
1 to 100 nM: all assays above

CCc1c(N2CCN(C(=O)c3ncnc(C)c3O)CC2)c(=O)n2nc(-c3ccc4nccn4c3)nc2n1CC(=O)Nc1ccc(C(F)(F)F)cc1Cl [Example 126, N-(2-chloro-4-(trifluoromethyl)phenyl)-2-(5-ethyl-6-(4-(5-hydroxy-6-methylpyrimidine-4-carbonyl)piperazin-1-yl)-2-(imidazo[1,2-a]pyridin-6-yl)-7-oxo-[1,2,4]triazolo[1,5-a]pyrimidin-4(7H)-yl)acetamide]
1 to 100 nM: all assays above

CCc1c(N2CCN(C(=O)c3ncnc(C)c3O)CC2)c(=O)n2nc(-c3ccc4c(c3)COC4)nc2n1CC(=O)Nc1ccc(C(F)(F)F)cc1Cl [Example 129, N-(2-chloro-4-(trifluoromethyl)phenyl)-2-(2-(1,3-dihydroisobenzofuran-5-yl)-5-ethyl-6-(4-(5-hydroxy-6-methylpyrimidine-4-carbonyl)piperazin-1-yl)-7-oxo-[1,2,4]triazolo[1,5-a]pyrimidin-4(7 H)-yl)acetamide]
1 to 100 nM: all assays above

CCc1c(N2CCN(C(=O)c3ncnc(C)c3O)CC2)c(=O)n2nc(-c3ccc4c(c3)CCCO4)nc2n1CC(=O)Nc1ccc(C(F)(F)F)cc1Cl [Example 130, N-(2-chloro-4-(trifluoromethyl)phenyl)-2-(2-(chroman-6-yl)-5-ethyl-6-(4-(5-hydroxy-6-methylpyrimidine-4-carbonyl)piperazin-1-yl)-7-oxo-[1,2,4]triazolo[1,5-a]pyrimidin-4(7H)-yl)acetamide]
1 to 100 nM: all assays above

CCc1c(N2CCN(C(=O)c3ncnc(C)c3O)CC2)c(=O)n2nc(-c3cc4ccncc4s3)nc2n1CC(=O)Nc1ccc(C(F)(F)F)cc1Cl [Example 132, N-(2-chloro-4-(trifluoromethyl)phenyl)-2-(5-ethyl-6-(4-(5-hydroxy-6-methylpyrimidine-4-carbonyl)piperazin-1-yl)-7-oxo-2-(thieno[2,3-c]pyridin-2-yl)-[1,2,4]triazolo[1,5-a]pyrimidin-4(7H)-yl)a cetamide]
1 to 100 nM: all assays above

CCc1c(N2CCN(C(=O)c3ncnc(C)c3O)CC2)c(=O)n2nc(-c3nc4ccccc4s3)nc2n1CC(=O)Nc1ccc(C(F)(F)F)cc1Cl [Example 133, 2-(2-(benzo[d]thiazol-2-yl)-5-ethyl-6-(4-(5-hydroxy-6-methylpyrimidine-4-carbonyl)piperazin-1-yl)-7-oxo-[1,2,4]triazolo[1,5-a]pyrimidin-4(7H)-yl)-N-(2-chloro-4-(trifluoromethyl)phenyl)acetamide]
1 to 100 nM: all assays above

CCc1c(N2CCN(C(=O)c3ncnc(C)c3O)CC2)c(=O)n2nc(-c3cc4c(s3)CCNC4)nc2n1CC(=O)Nc1ccc(C(F)(F)F)cc1Cl [Example 134, N-(2-chloro-4-(trifluoromethyl)phenyl)-2-(5-ethyl-6-(4-(5-hydroxy-6-methylpyrimidine-4-carbonyl)piperazin-1-yl)-7-oxo-2-(4,5,6,7-tetrahydrothieno[3,2-c]pyridin-2-yl)-[1,2,4]triazolo[1,5-a]pyrimidin-4(7H)-yl)acetamide]
1 to 100 nM: all assays above

CCc1c(N2CCN(C(=O)c3ncnc(C)c3O)CC2)c(=O)n2nc(-c3ccc4nc(N)oc4c3)nc2n1CC(=O)Nc1ccc(C(F)(F)F)cc1Cl [Example 140, 2-(2-(2-aminobenzo[d]oxazol-6-yl)-5-ethyl-6-(4-(5-hydroxy-6-methylpyrimidine-4-carbonyl)piperazin-1-yl)-7-oxo-[1,2,4]triazolo[1,5-a]pyrimidin-4(7H)-yl)-N-(2-chloro-4-(trifluoromethyl)phenyl)acetamide]
1 to 100 nM: all assays above

CCc1c(N2CCN(C(=O)c3ncnc(C)c3O)CC2)c(=O)n2nc(-c3ccc4c(c3)CNCCO4)nc2n1CC(=O)Nc1ccc(C(F)(F)F)cc1Cl [Example 142, N-(2-chloro-4-(trifluoromethyl)phenyl)-2-(5-ethyl-6-(4-(5-hydroxy-6-methylpyrimidine-4-carbonyl)piperazin-1-yl)-7-oxo-2-(2,3,4,5-tetrahydrobenzo[f][1,4]oxazepin-7-yl)-[1,2,4]triazolo[1,5-a]pyrimidin-4(7H)-yl)acetamide]
1 to 100 nM: all assays above

[2H]C([2H])([2H])Sc1ccc(NC(=O)Cn2c(CC)c(N3CCN(C(=O)c4ncnc(C)c4O)CC3)c(=O)n3nc(-c4ccc5c(c4)CCO5)nc23)c(Cl)c1 [Example 147, N-(2-chloro-4-((methyl-d3)thio)phenyl)-2-(2-(2,3-dihydrobenzofuran-5-yl)-5-ethyl-6-(4-(5-hydroxy-6-methylpyrimidine-4-carbonyl)piperazin-1-yl)-7-oxo-[1,2,4]triazolo[1,5-a]pyrimidin-4(7H)-yl)acetamide]
1 to 100 nM: all assays above

CCc1c(C2=CCN(C(=O)c3ncnc(C)c3O)CC2)c(=O)n2nc(-c3ccc4c(c3)CCO4)nc2n1CC(=O)Nc1ccc(C(F)(F)F)cc1Cl [Example 149, N-(2-chloro-4-(trifluoromethyl)phenyl)-2-(2-(2,3-dihydrobenzofuran-5-yl)-5-ethyl-6-(1-(5-hydroxy-6-methylpyrimidine-4-carbonyl)-1,2,3,6-tetrahydropyridin-4-yl)-7-oxo-[1,2,4]triazolo[1,5-a]pyrimidin-4(7H)-yl)acetamide]
1 to 100 nM: all assays above

CCc1c(N2CCN(C(=O)c3nc(C)ncc3O)CC2)c(=O)n2nc(-c3ccc4c(c3)CCO4)nc2n1CC(=O)Nc1ccc(C(F)(F)F)cc1Cl [Example 150, N-(2-chloro-4-(trifluoromethyl)phenyl)-2-(2-(2,3-dihydrobenzofuran-5-yl)-5-ethyl-6-(4-(5-hydroxy-2-methylpyrimidine-4-carbonyl)piperazin-1-yl)-7-oxo-[1,2,4]triazolo[1,5-a]pyrimidin-4(7H)-yl)acetamide]
1 to 100 nM: all assays above

CCc1c(N2CCN(C(=O)c3ncnc(C)c3O)CC2)c(=O)n2nc(-c3cc4cnccc4s3)nc2n1CC(=O)Nc1ccc(C(F)(F)F)cc1Cl [Example 153, N-(2-chloro-4-(trifluoromethyl)phenyl)-2-(5-ethyl-6-(4-(5-hydroxy-6-methylpyrimidine-4-carbonyl)piperazin-1-yl)-7-oxo-2-(thieno[3,2-c]pyridin-2-yl)-[1,2,4]triazolo[1,5-a]pyrimidin-4(7H)-yl)a cetamide]
1 to 100 nM: all assays above
